Measurements reported in paper PMC7235778, “Methylxanthines Inhibit Primary Amine Oxidase and Monoamine Oxidase Activities of Human Adipose Tissue” (Medicines, 2020).
Blank lines part the entries; values can stand above or below the molecule they belong to.

Legend:
[1] = target: T1, primary amine oxidase (PrAO; SSAO/VAP-1) (Homo sapiens, UniProt Q16853); test: Amplex Red H2O2 assay of benzylamine oxidation in adipose tissue homogenate; Lineweaver-Burk analysis; format: cell-based; conditions: read-out: % inhibition at 2.5 mM
T1 construct: gene AOC3; native enzyme in human subcutaneous adipose tissue homogenate
T1 sequence (Q16853 1-763): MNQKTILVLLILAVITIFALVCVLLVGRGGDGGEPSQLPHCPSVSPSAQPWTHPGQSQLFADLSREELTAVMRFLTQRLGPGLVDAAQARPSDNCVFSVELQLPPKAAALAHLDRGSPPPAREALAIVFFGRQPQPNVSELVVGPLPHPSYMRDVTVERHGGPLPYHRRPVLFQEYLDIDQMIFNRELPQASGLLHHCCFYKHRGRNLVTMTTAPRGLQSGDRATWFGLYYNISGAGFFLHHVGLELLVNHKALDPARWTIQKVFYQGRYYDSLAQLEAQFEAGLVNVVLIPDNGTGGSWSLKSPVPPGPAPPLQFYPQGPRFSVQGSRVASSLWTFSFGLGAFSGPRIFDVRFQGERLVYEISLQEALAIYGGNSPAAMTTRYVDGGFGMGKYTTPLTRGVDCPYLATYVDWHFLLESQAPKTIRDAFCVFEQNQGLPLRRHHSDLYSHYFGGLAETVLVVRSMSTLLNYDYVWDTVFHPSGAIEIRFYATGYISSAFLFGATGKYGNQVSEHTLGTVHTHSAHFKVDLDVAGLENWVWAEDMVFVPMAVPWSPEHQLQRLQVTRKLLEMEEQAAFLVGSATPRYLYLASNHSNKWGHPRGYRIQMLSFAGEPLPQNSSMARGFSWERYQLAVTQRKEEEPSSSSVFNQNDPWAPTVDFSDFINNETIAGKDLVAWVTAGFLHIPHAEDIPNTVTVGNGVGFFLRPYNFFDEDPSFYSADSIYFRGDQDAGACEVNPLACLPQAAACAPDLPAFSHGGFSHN

[2] = target: T1, primary amine oxidase (PrAO; SSAO/VAP-1); test: Amplex Red H2O2 assay of methylamine and benzylamine oxidation in adipose tissue homogenate; format: cell-based; conditions: read-out: % inhibition at 1 mM
[3] = target: T1, primary amine oxidase (PrAO; SSAO/VAP-1); test: Amplex Red H2O2 assay of benzylamine and methylamine oxidation in adipose tissue homogenate; format: biochemical
[4] = target: T1, primary amine oxidase (PrAO; SSAO/VAP-1); test: as above; format: cell-based; conditions: read-out: % inhibition at 2.5 mM

- inhibition at 2500 µM [1]: 54%
SMILES: Cn1cnc2c1c(=O)[nH]c(=O)n2C [theobromine]

- inhibition at 1000 µM [2]: ~80%
SMILES: CC(C)Cn1c(=O)n(C)c(=O)c2[nH]cnc21 [IBMX, 3-isobutyl-1-methylxanthine]

SMILES: NNC(N)=O [Semi, semicarbazide]
- Amplex Red H2O2 assay of benzylamine and methylamine oxidation in adipose tissue [3]: total inhibition at 1

SMILES: Cn1c(=O)c2c(ncn2C)n(C)c1=O [caffeine]
- inhibition at 2500 µM [4]: ~50%
